Assay [1] addresses T1, human D2R/β-arrestin (Homo sapiens (Human), UniProt P14416). Kind of assay: β-arrestin agonist assay (PathHunter). Format: cell-based. As to conditions: CHO-K1 cells expressing human D2R/β-arrestin; agonist mode. As for the experimental part: The detection reagent (9.6 μL, Buffer:Emerald II:Galactor-Star in a 19:5:1 ratio, i.e., 14.06 mL:3.7 mL:0.74 mL=18.5 mL) was then added to the agonist plates.

The target of assay [2] is T1, human D2R/β-arrestin. Kind of assay: cell-based. As to conditions: β-arrestin Antagonist, CHO-K1 cells expressing human D2R/β-arrestin; antagonist mode, quinpirole 130 nM.
Assay [3] concerns the target T1, human D2R/β-arrestin. Kind of assay: cell-based. As to conditions: cAMP Antagonist, CHO-K1 cells expressing human D2R/β-arrestin; antagonist mode, 2.5 μM forskolin and 2.7 nM quinpirole.
Experimental: Cells were prepared for assays by growing cultures for up to 2 weeks (from about 6-20 passages). A vial of frozen cells was thawed in a water bath held at 37° C. The cells were then transferred into a 50 ml tube with 10 ml growth media. The vial was rinsed with growth media and the contents transferred to the 50 ml tube. The 50 ml tube was centrifuged at 1200 rpm for 5 minutes at room temperature. […] When the cells reached about 90% confluence (approximately 3 days between passages), the cells were passaged and used for either the agonist or antagonist assays as described below.
The cells were prepared for Gi/cAMP assays as described above. The assays were performed using a PE Lance Ultra cAMP kit (TRF0263). The cells were grown on 225 mm dishes, then washed once with 1×PBS (Cellgro) before digestion with 2.5 ml 1× Detachment reagent (DRX 92-0009) for about 2 minutes. PBS (20 ml) was then added to the plate, and the cells were transferred to a 50 ml centrifuge tube, and centrifuged at room temperature using BD Dynac III, at 1200 rpm for 5 minutes. […] The plates were then incubated at room temperature for about 30 minutes before addition of Eu-cAMP tracer solution (10 μl, PerkinElmer) and then ULight-anti-cAMP solution (10 μl) to each well.
Assay [4] deals with T1, human D2R/β-arrestin. The assay can be described thus: Gi/cAMP agonist assay (Lance Ultra cAMP, forskolin). Format: cell-based. As to conditions: CHO-K1 cells expressing human D2R/β-arrestin; agonist mode, 2.5 μM forskolin. Here is the method: Eu-cAMP tracer solution (10 μl, PerkinElmer, 360 μl of Tracer in 17.64 ml kit buffer) and ULight-anti-cAMP solution (10 μl, 120 μL antibody in 17.88 ml kit buffer) was then added to each well.

A value given as a limit tells only on which side of the number the result lay.

T1 sequence (P14416 whole entry): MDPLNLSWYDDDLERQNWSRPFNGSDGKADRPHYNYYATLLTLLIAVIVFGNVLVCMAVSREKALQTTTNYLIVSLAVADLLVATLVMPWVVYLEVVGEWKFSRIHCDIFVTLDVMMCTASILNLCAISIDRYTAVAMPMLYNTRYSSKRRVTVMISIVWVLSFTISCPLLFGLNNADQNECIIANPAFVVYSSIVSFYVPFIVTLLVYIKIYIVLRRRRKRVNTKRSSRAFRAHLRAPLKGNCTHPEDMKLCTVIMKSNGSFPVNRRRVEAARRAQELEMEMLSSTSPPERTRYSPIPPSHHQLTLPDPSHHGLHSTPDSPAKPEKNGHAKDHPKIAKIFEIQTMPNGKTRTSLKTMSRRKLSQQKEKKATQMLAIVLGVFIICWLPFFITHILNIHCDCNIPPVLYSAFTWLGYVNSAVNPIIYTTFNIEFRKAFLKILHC

In the case of `CC1(Oc2ccc(Cl)cc2)CCN(CCOc2ccc(F)cc2F)C1` (stereo not shown) [Compound 22, 3-(4-chlorophenoxy)-1-(2-(2,4-difluorophenoxy)ethyl)-3-methyl pyrrolidine], the values for the EC50 on human D2R/β-arrestin [1] and on human D2R/β-arrestin [4] were greater than 30 µM and less than 100 nM, respectively. Further, the IC50 (as a rule, the concentration that inhibits the measured activity by half) at human D2R/β-arrestin [2] is 1000 to 10000 nM; on human D2R/β-arrestin [3], 100 to 1000 nM.

With `CC1(Oc2ccc(Cl)cc2)CCN(CCOc2cc(F)ccc2F)C1` (stereo not shown) [Compound 23, 3-(4-chlorophenoxy)-1-(2-(2,5-difluorophenoxy)ethyl)-3-methyl pyrrolidine], the EC50 (as a rule, the concentration at which the effect is half-maximal) at human D2R/β-arrestin [1] was greater than 30 µM; on human D2R/β-arrestin [4], less than 100 nM. For the same molecule, the figures for the IC50 on human D2R/β-arrestin [2] and at human D2R/β-arrestin [3] were 100 to 1000 nM and greater than 30000 nM, respectively.

As for `CC1(Oc2ccc(Cl)cc2)CCN(CCOc2ccc3cccnc3c2)C1` (stereo not shown) [Compound 24], the EC50 was less than 0.1 µM at human D2R/β-arrestin [1] and less than 100 nM at human D2R/β-arrestin [4]. The IC50 against human D2R/β-arrestin [2] and on human D2R/β-arrestin [3] was greater than 30000 nM throughout.

Take `CC1(Oc2ccc(Cl)cc2)CCN(CCOc2ccc3ccc(=O)[nH]c3c2)C1` (stereo not shown) [Compound 25, 7-(2-(3-(4-chlorophenoxy)-3-methylpyrrolidin-1-yl)ethoxy)quinolin-2(1H)-one]: the EC50 was greater than 30 µM on human D2R/β-arrestin [1] and greater than 30000 nM on human D2R/β-arrestin [4]. Besides, the IC50 against human D2R/β-arrestin [2] and at human D2R/β-arrestin [3] was 1000 to 10000 nM throughout.

Regarding `CC1(Oc2ccc(Cl)cc2)CCN(CCCc2ccccc2)C1` (stereo not shown) [Compound 26, 3-(4-chlorophenoxy)-3-methyl-1-(3-phenylpropyl)pyrrolidine], the figures for the EC50 on human D2R/β-arrestin [1] and on human D2R/β-arrestin [4] were greater than 30 µM and greater than 30000 nM, respectively. For the same molecule, the IC50 against human D2R/β-arrestin [2] fell in the range of 1000 to 10000 nM; against human D2R/β-arrestin [3], 100 to 1000 nM.

`CC1(Oc2ccc(Cl)cc2)CCN(CCCCOc2ccccc2Cl)C1` (stereo not shown) [Compound 28, 3-(4-chlorophenoxy)-1-(4-(2-chlorophenoxy)butyl)-3-methylpyrrolidine]: the EC50 is greater than 30 µM on human D2R/β-arrestin [1] and greater than 30000 nM at human D2R/β-arrestin [4]. Moreover, the IC50 at human D2R/β-arrestin [2] is 100 to 1000 nM; at human D2R/β-arrestin [3] it was less than 100 nM.

In the case of `CC1(Oc2ccc(Cl)cc2)CCN(CCCCOc2ccc3ncsc3c2)C1` (stereo not shown) [Compound 29, 6-(4-(3-(4-chlorophenoxy)-3-methylpyrrolidin-1-yl)butoxy)benzo[d]thiazole], the EC50 at human D2R/β-arrestin [1] was greater than 30 µM; on human D2R/β-arrestin [4], greater than 30000 nM. In addition, the IC50 on human D2R/β-arrestin [2] and against human D2R/β-arrestin [3] was 1000 to 10000 nM throughout.

For `CC1(Oc2ccc(Cl)cc2)CCN(CCOc2ccc(C(F)(F)F)nc2)C1` (stereo not shown) [Compound 30, 5-(2-(3-(4-Chlorophenoxy)-3-methylpyrrolidin-1-yl)ethoxy)-2-(trifluoromethyl)pyridine], the EC50 on human D2R/β-arrestin [1] lay in the range of 1 to 10 µM; on human D2R/β-arrestin [4], 100 to 1000 nM. Also, the IC50 at human D2R/β-arrestin [2] and on human D2R/β-arrestin [3] was greater than 30000 nM in each case.

For the molecule `CC1(Oc2ccc(Cl)cc2)CCN(CCOc2ccc3ccccc3c2)C1` (stereo not shown) [Compound 31, 3-(4-Chlorophenoxy)-3-methyl-1-(2-(naphthalen-2-yloxy)ethyl) pyrrolidine], the EC50 was greater than 30 µM on human D2R/β-arrestin [1] and greater than 30000 nM at human D2R/β-arrestin [4]. Also, the IC50 fell in the range of 1000 to 10000 nM at human D2R/β-arrestin [2] and 100 to 1000 nM against human D2R/β-arrestin [3].

On to `CC1(Oc2ccc(Cl)cc2)CCN(CCOc2ccc3ncccc3c2)C1` (stereo not shown) [Compound 32], for which the results for the EC50 at human D2R/β-arrestin [1] and at human D2R/β-arrestin [4] were greater than 30 µM and 100 to 1000 nM, respectively. In addition, the IC50 at human D2R/β-arrestin [2] was 1000 to 10000 nM; against human D2R/β-arrestin [3], greater than 30000 nM.

As to `CC1(Oc2ccc(Cl)cc2)CCN(CCOc2ccc3cnccc3c2)C1` (stereo not shown) [Compound 33, 6-(2-(3-(4-chlorophenoxy)-3-methylpyrrolidin-1-yl)ethoxy)isoquinoline], the EC50 on human D2R/β-arrestin [1] was greater than 30 µM; at human D2R/β-arrestin [4], greater than 30000 nM. For the same molecule, the results for the IC50 on human D2R/β-arrestin [2] and at human D2R/β-arrestin [3] were 1000 to 10000 nM and 100 to 1000 nM, respectively.

As to `CC1(Oc2ccc(Cl)cc2)CCN(CCOc2ccc3ccncc3c2)C1` (stereo not shown) [Compound 34, 7-(2-(3-(4-chlorophenoxy)-3-methylpyrrolidin-1-yl)ethoxy)isoquinoline], the results for the EC50 at human D2R/β-arrestin [1] and on human D2R/β-arrestin [4] were 1 to 10 µM and 100 to 1000 nM, respectively. In addition, the IC50 against human D2R/β-arrestin [2] and against human D2R/β-arrestin [3] was greater than 30000 nM throughout.

Consider `CC1(Oc2ccc(Cl)cc2)CCN(CCOc2ccc(Cl)c(Cl)c2)C1` (stereo not shown) [Compound 35, 3-(4-chlorophenoxy)-1-(2-(3,4-dichlorophenoxy)ethyl)-3-methyl pyrrolidine], for which the values for the EC50 at human D2R/β-arrestin [1] and on human D2R/β-arrestin [4] were greater than 30 µM and less than 100 nM, respectively. The figures for the IC50 against human D2R/β-arrestin [2] and on human D2R/β-arrestin [3] were 1000 to 10000 nM and greater than 30000 nM, respectively.

Turning to `CC1(Oc2ccc(Cl)cc2)CCN(CCOc2cccc3ccccc23)C1` (stereo not shown) [Compound 36, 3-(4-chlorophenoxy)-3-methyl-1-(2-(naphthalen-1-yloxy)ethyl) pyrrolidine], the concentration giving a half-maximal response (EC50) on human D2R/β-arrestin [1] is greater than 30 µM; on human D2R/β-arrestin [4], 100 to 1000 nM. Besides, the IC50 fell in the range of 1000 to 10000 nM against human D2R/β-arrestin [2] and 100 to 1000 nM at human D2R/β-arrestin [3].

For the molecule `CC1(Oc2ccc(Cl)cc2)CCN(CCOc2cccc(-c3ccccc3)c2)C1` (stereo not shown) [Compound 37, 1-(2-([1,1′-biphenyl]-3-yloxy)ethyl)-3-(4-chlorophenoxy)-3-methylpyrrolidine], the EC50 on human D2R/β-arrestin [1] was greater than 30 µM; at human D2R/β-arrestin [4] it was greater than 30000 nM. The IC50 was 1000 to 10000 nM against human D2R/β-arrestin [2] and 100 to 1000 nM on human D2R/β-arrestin [3].

`CC1(Oc2ccc(Cl)cc2)CCN(CCOc2ccccc2)CC1` [Compound 38, 4-(4-chlorophenoxy)-4-methyl-1-(2-phenoxyethyl)piperidine]: the concentration giving a half-maximal response (EC50) was 0.1 to 1 µM on human D2R/β-arrestin [1] and less than 100 nM on human D2R/β-arrestin [4]. Moreover, the IC50 against human D2R/β-arrestin [2] and against human D2R/β-arrestin [3] was greater than 30000 nM throughout.

As to `CC1(Oc2ccccc2)CCN(CCOc2ccccc2)C1` (stereo not shown) [Compound 39, 3-methyl-3-phenoxy-1-(2-phenoxyethyl)pyrrolidine], the EC50 on human D2R/β-arrestin [1] is greater than 30 µM; on human D2R/β-arrestin [4] it was less than 100 nM. Also, the IC50 was 100 to 1000 nM against human D2R/β-arrestin [2] and greater than 30000 nM against human D2R/β-arrestin [3].

`FC(F)(F)c1ccccc1OCCN1CCC2(CC1)CCN2c1ccccc1` [Compound 113, 1-phenyl-7-(2-(2-(trifluoromethyl)phenoxy)ethyl)-1,7-diazaspiro[3.5]nonane]: the figures for the EC50 at human D2R/β-arrestin [1] and on human D2R/β-arrestin [4] were greater than 30 µM and greater than 30000 nM, respectively. Moreover, the IC50 at human D2R/β-arrestin [2] and against human D2R/β-arrestin [3] was 100 to 1000 nM throughout.

For `OC1(Cc2ccccc2)CCN(CCOc2ccccc2C(F)(F)F)CC1` [Compound 114, 4-benzyl-1-(2-(2-(trifluoromethyl)phenoxy)ethyl)piperidin-4-ol], the EC50 is greater than 30 µM at human D2R/β-arrestin [1] and greater than 30000 nM on human D2R/β-arrestin [4]. For the same molecule, the IC50 against human D2R/β-arrestin [2] and on human D2R/β-arrestin [3] was less than 100 nM each time.

With `FC1(Cc2ccccc2)CCN(CCOc2ccccc2C(F)(F)F)CC1` [Compound 115, 4-benzyl-4-fluoro-1-(2-(2-(trifluoromethyl)phenoxy)ethyl)piperidine], the EC50 on human D2R/β-arrestin [1] was greater than 30 µM; on human D2R/β-arrestin [4] it was greater than 30000 nM. Besides, the IC50 at human D2R/β-arrestin [2] and at human D2R/β-arrestin [3] was 1000 to 10000 nM in each case.

Turning to `CC1(Oc2ccccc2)CCN(CCC(=O)c2ccccc2C(F)(F)F)CC1` [Compound 116, 3-(4-Methyl-4-phenoxypiperidin-1-yl)-1-(2-(trifluoromethyl)phenyl) propan-1-one], the EC50 is greater than 30 µM on human D2R/β-arrestin [1] and greater than 30000 nM at human D2R/β-arrestin [4]. Also, the values for the IC50 against human D2R/β-arrestin [2] and against human D2R/β-arrestin [3] were 10000 to 30000 nM and 1000 to 10000 nM, respectively.

`CC1(Oc2ccc(Cl)cc2)CCN(CCC(C)(O)c2ccccc2C(F)(F)F)CC1` (stereo not shown) [Compound 117, 4-(4-(4-chlorophenoxy)-4-methylpiperidin-1-yl)-2-(2-(trifluoromethyl)phenyl)butan-2-ol]: the EC50 was greater than 30 µM on human D2R/β-arrestin [1] and greater than 30000 nM on human D2R/β-arrestin [4]. The figures for the IC50 against human D2R/β-arrestin [2] and on human D2R/β-arrestin [3] were 10000 to 30000 nM and 1000 to 10000 nM, respectively.

With `CC1(Oc2ccccc2)CCN(CCCc2ccccc2C(F)(F)F)CC1` [Compound 118, 4-Methyl-4-phenoxy-1-(3-(2-(trifluoromethyl)phenyl)propyl)piperidine], the EC50 at human D2R/β-arrestin [1] was greater than 30 µM; at human D2R/β-arrestin [4], less than 100 nM. Moreover, the IC50 on human D2R/β-arrestin [2] and on human D2R/β-arrestin [3] was 100 to 1000 nM in each case.

`CC1(C)OC(c2ccccc2)C2(CCN(CCOc3ccccc3C(F)(F)F)CC2)O1` (stereo not shown) [Compound 119]: the figures for the EC50 on human D2R/β-arrestin [1] and on human D2R/β-arrestin [4] were greater than 30 µM and greater than 30000 nM, respectively. The IC50 on human D2R/β-arrestin [2] and at human D2R/β-arrestin [3] was 1000 to 10000 nM throughout.

As for `CC1(Oc2ccc(Cl)cc2)CCN(CCCCOc2ccccc2)CC1` [Compound 120, 4-(4-chlorophenoxy)-4-methyl-1-(4-phenoxybutyl)piperidine], the EC50 is greater than 30 µM at human D2R/β-arrestin [1] and 1000 to 10000 nM on human D2R/β-arrestin [4]. Also, the IC50 against human D2R/β-arrestin [2] is 10000 to 30000 nM; against human D2R/β-arrestin [3] it was greater than 30000 nM.

Consider `CC1(Oc2ccccc2)CCN(CCCCOc2ccccc2)CC1` [Compound 121, 4-Methyl-4-phenoxy-1-(4-phenoxybutyl)piperidine], for which the EC50 on human D2R/β-arrestin [1] was 0.1 to 1 µM; at human D2R/β-arrestin [4] it was less than 100 nM. Besides, the IC50 against human D2R/β-arrestin [2] was 1000 to 10000 nM; against human D2R/β-arrestin [3] it was greater than 30000 nM.

Turning to `CC1(O)CCN(CCOc2ccccc2C(F)(F)F)CC1` [Compound 124, 4-Methyl-1-(2-(2-(trifluoromethyl)phenoxy)ethyl)piperidin-4-ol], the EC50 is greater than 30 µM on human D2R/β-arrestin [1] and greater than 30000 nM on human D2R/β-arrestin [4]. For the same molecule, the values for the IC50 against human D2R/β-arrestin [2] and on human D2R/β-arrestin [3] were 100 to 1000 nM and less than 100 nM, respectively.

For `CC1(OCc2ccccc2)CCN(CCOc2ccccc2C(F)(F)F)CC1` [Compound 126, 4-(Benzyloxy)-4-methyl-1-(2-(2-(trifluoromethyl)phenoxy)ethyl) piperidine], the EC50 on human D2R/β-arrestin [1] was greater than 30 µM; on human D2R/β-arrestin [4] it was greater than 30000 nM. Moreover, the IC50 on human D2R/β-arrestin [2] and against human D2R/β-arrestin [3] was less than 100 nM throughout.

The values above are taken from patent US11498896B2 (The Broad Institute, Inc., priority 2014, dated 2022).
